Measured values as given in patent US20130059879A1, “Small Molecule Inhibitors of PFKFB3 and Glycolytic Flux and Their Methods of Use as Anti-Cancer Therapeutics” (UNIVERSITY OF LOUISVILLE RESEARCH FOUNDATION, INC., priority 2010, published 2013).
pIC50: −log10 of the molar value. ≈ marks a conversion by molar mass, not a printed value. Where two headings read alike, the source gives them in different places.

Tests used:
[1] = Solubility in solvents and excipients, 1 hour at room temperature, HPLC; type: physicochemical; settings: thermodynamic from solid
Description: Chemical properties of the compounds of the invention were investigated, including the solubility in several solvents and pharmaceutically accepted excipients. […] Briefly, selected compounds of the invention are dissolved in a small volume of the solvents/excipients of interest at room temperature over 1 hour in typically 1 ml and the concentration is measured by HPLC after filtration.

Jurkat cells = test: Inhibition of 14C-2-deoxyglucose uptake; type: cell-based; settings: Homo sapiens, 3 hours
Description: Inhibition of PFKFB3 results in inhibiting glycolysis. Several feedback or feedforward activation and inhibition mechanisms exist so that, by a feedback mechanism, inhibiting the activity of PFKFB3 may inhibit glucose uptake by cells. An assay was developed to determine if there was inhibition of glucose uptake following exposure to the compounds on the invention. Briefly, Jurkat cells were plated at 1×10^5/mL in RPM′ 1640 supplemented with 10% fetal bovine serum and 50 μg/mL gentamicin sulfate. Cells were immediately treated with vehicle or 5 μmol/L of the compound of the invention for 3 hours and subsequently placed in glucose-free RPMI 1640 for 30 min. ^14C-2-deoxyglucose (0.25 μCi/mL; Perkin Elmer) was added for an additional 60 min and cells were then washed three with ice-cold RPMI 1640 containing no glucose. Cell lysates were collected in 500 μL of 0.1% SDS, and scintillation counts (counts/min) were measured on 400 μL of lysate. Counts were normalized to protein concentration.

Jurkat = test: Cancer cell proliferation, Alamar Blue assay, 72 hours; type: cell-based; settings: Homo sapiens, Jurkat
Description: (§1) The ability of the compounds described herein to kill or inhibit the proliferation of cancer cells was measured using either the MTT assay, or the Alamar Blue assay, or the Cell Titer Glow® assay using 48 or 72 hours exposure. […] The procedures are briefly described below. Cells of the desired tumor cell line were plated at 2×10^5 cells/ml in 96 well plates. Twice the indicated concentrations of the compounds of the invention were added to cells the following day in an equal volume of media. 72 hours later, cells were lysed and subjected to ATP determination using the CellTiter Glo-Luminescent Cell Viability Assay kit (Promega, Madison, Wis.). Experiments were done in triplicate. When using the MTT assay or the Alamar blue assay, the experimental conditions are essentially similar; at the end of the incubation period, 20 microliters of the MTT solution is added per well and the samples are incubated for an additional four hours, rinsed, and the absorbance at 570 nm measured. […] Table 2 lists the IC50 values for the compounds of the invention in several cell lines including Jurkat, Calu-6, NCI-H82, U937, HCT-116, and MDA-MB-231 cancer cell lines.

Calu-6 = test: as above; type: cell-based; settings: Homo sapiens, Calu-6
Description: as §1

HCT-116 = test: as above; type: cell-based; settings: Homo sapiens, HCT-116
Description: as §1

NCI-H82 = test: as above; type: cell-based; settings: Homo sapiens, NCI-H82, read-out: IC50 NCl-H82
Description: as §1

U937 = test: as above; type: cell-based; settings: Homo sapiens, U-937
Description: as §1

PFKFB3 = biological target: T1, PFKFB3 (Homo sapiens, UniProt Q16875); test: Inhibition of recombinant PFKFB3 kinase activity (ADP Glow assay); type: biochemical; settings: 250 nM analog concentration; read-out: % Inhibition of PFKFB3 Enzymatic Activity
T1 construct: GST
T1 sequence (Q16875 whole entry, species assumed): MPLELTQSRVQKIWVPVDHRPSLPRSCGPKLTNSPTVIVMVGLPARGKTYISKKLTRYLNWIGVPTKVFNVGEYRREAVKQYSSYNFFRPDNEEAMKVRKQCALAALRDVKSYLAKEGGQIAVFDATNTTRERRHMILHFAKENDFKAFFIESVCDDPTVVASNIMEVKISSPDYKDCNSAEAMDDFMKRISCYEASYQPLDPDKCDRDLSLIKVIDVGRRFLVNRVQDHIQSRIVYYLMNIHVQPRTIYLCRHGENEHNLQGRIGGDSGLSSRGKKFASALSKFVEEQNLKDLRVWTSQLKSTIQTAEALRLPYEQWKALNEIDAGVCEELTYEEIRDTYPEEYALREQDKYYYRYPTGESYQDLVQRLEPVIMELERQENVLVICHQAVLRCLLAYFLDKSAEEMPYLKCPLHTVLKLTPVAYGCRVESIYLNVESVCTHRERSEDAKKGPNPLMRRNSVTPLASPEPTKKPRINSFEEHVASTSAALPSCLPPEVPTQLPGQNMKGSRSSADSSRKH
Description: PFKFB3 was prepared by expression in E. coli and purified by GST column and column chromatography. […] The recombinant protein was pure and active as determined by the results of a kinase activity assay commercially available (such as ADP Glow® assay, […]). The same assay was used to determine the inhibition of the protein and the results are shown in Table 5 below (IC50 values or percent inhibition at a fixed concentration). Results confirmed that the compounds of the invention have low nanomolar IC50 values, interacting with PFKFB3 and inhibiting its enzymatic activity.

MDA-MB-231 = test: Cancer cell proliferation, Alamar Blue assay, 72 hours; type: cell-based; settings: Homo sapiens
Description: as §1

[2] = Microsomal stability in human liver microsomes; type: in vitro ADME
Description: Microsomal stability in vitro in different biologic media (liver microsomes, S9 fraction, hepatocytes) and species is ascertained to evaluate the rate at which a compound undergoes metabolism in the experimental in vitro conditions. Results for some compounds of the invention after a 60 minutes incubation period in human liver microsomes are shown in the Table 6 below. […] Experimental conditions are briefly described here: the stability in human liver microsomes of several compounds was done over […] at 37° C. using pooled mixed gender human liver microsomes. These liver microsomes were prepared at 1.0 mg/ml of microsomal protein in a 100 mM potassium phosphate pH 7.4 buffer with 1 mM NADPH. The media was incubated at 37° C. with the compound in solution in DMSO. The concentration of the compound was followed by LC/MS-MS as a function of time. Samples were assayed at t=0, 15, 30, and 60 minutes. Testosterone was used as a positive control. The same experiment was performed with mouse, rat or dog liver microsomes instead of human liver microsomes.

[3] = aqueous with cosolvent or surfactant or cyclodextrin, Cre:EtOH:Saline 5:5:90 mixture, 1 hour at room temperature, read-out: Solubility Cre:EtOH:Saline
[4] = ethanol, organic solvent or mixture, EtOH, 1 hour at room temperature, read-out: Solubility EtOH
[5] = organic solvent or mixture, 1:1 cremophor EL-P:ethanol mixture, 1 hour at room temperature, read-out: Solubility Cre:EtOH
[6] = organic solvent or mixture, Acetone, 1 hour at room temperature, read-out: Solubility Acetone
[7] = organic solvent or mixture, Cremophor, 1 hour at room temperature, read-out: Solubility Cremophor
[8] = organic solvent or mixture, DCM, 1 hour at room temperature, read-out: Solubility DCM
[9] = organic solvent or mixture, Tween 80, 1 hour at room temperature, read-out: Solubility Tween 80
[10] = organic solvent or mixture, Tween80:EtOH 6:4 mixture, 1 hour at room temperature, read-out: Solubility Twee80:EtOH
[11] = 60 min incubation, 1.0 mg/ml microsomal protein, 1 mM NADPH, 37° C.

Row | SMILES | solubility at 1 h [1, 3] | solubility at 1 h [1, 4] | solubility at 1 h [1, 5] | solubility at 1 h [1, 6] | solubility at 1 h [1, 7] | solubility at 1 h [1, 8] | solubility at 1 h [1, 9] | solubility at 1 h [1, 10] | inhibition at 5 µM (Jurkat cells) | pIC50 (Jurkat) | pIC50 (Calu-6) | pIC50 (HCT-116) | pIC50 (NCI-H82) | pIC50 (U937) | inhibition at 0.25 µM (PFKFB3) | pIC50 (MDA-MB-231) | HLM, Mean metabolized (%) ([2]; 0 min) | HLM, Mean metabolized (%) [2, 11]
1 | COc1ccccc1C(=O)c1cc2c(ccc3ccccc32)[nH]1 [ACT-PFK-098, (3H-Benzo[e]indol-2-yl)-(2-methoxy-phenyl)-methanone] | 2400 µg/mL (≈ 7.96 mM) | 4600 µg/mL (≈ 15.3 mM) | 29000 µg/mL (≈ 96.2 mM) | 9300 µg/mL (≈ 30.9 mM) | 30200 µg/mL (≈ 100 mM) | 10400 µg/mL (≈ 34.5 mM) | 37000 µg/mL (≈ 123 mM) | 32800 µg/mL (≈ 109 mM) | 25% | 6.39 | 6.66 | 6.31 | 6.68 | 7.40 | – | – | – | –
2 | O=C(c1ccc(O)cc1)c1cc2c(ccc3ccccc32)[nH]1 [ACT-PFK-100, (3H-Benzo[e]indol-2-yl)-(4-hydroxy-phenyl)-methanone] | – | – | – | – | – | – | – | – | – | – | – | – | – | – | 0% | – | – | –
3 | O=C(c1ccccc1)c1cc2c3c(ccc2[nH]1)CCCC3 [ACT-PFK-107, Phenyl-(6,7,8,9-tetrahydro-3H-benzo[e]indol-2-yl)-methanone] | – | – | – | – | – | – | – | – | – | 5.16 | 5.14 | < 4.00 | 5.00 | 5.55 | – | 4.93 | 0.0% | 100.0%
4 | COc1cc(C(=O)c2cc3c(ccc4ccccc43)[nH]2)ccc1O [ACT-PFK-108, (3H-Benzo[e]indol-2-yl)-(4-hydroxy-3-methoxylthenyl)-methanone] | 4800 µg/mL (≈ 15.1 mM) | 9900 µg/mL (≈ 31.2 mM) | 78100 µg/mL (≈ 246 mM) | 12800 µg/mL (≈ 40.3 mM) | 37600 µg/mL (≈ 118 mM) | 11100 µg/mL (≈ 35 mM) | 16900 µg/mL (≈ 53.3 mM) | 10300 µg/mL (≈ 32.5 mM) | 2% | 6.26 | 6.44 | 6.32 | 6.44 | 6.69 | – | 7.05 | 0.0% | 73.3%
5 | COc1cc(C(=O)c2cc3c(ccc4ccccc43)[nH]2)ccc1OCc1ccccc1 [ACT-PFK-109, (3H-Benzo[e]indol-2-yl)-(4-benzyloxy-3-methoxy-phenyl)-methanone] | – | – | – | – | – | – | – | – | 42% | < 4.00 | 4.19 | < 4.00 | < 4.00 | < 4.00 | – | < 4.00 | – | –
6 | O=C(O)c1ccc(C(=O)c2cc3c(ccc4ccccc43)[nH]2)cc1 [ACT-PFK-111, 4-(3H-Benzo[e]indole-2-carbonyl)-benzoic acid] | – | – | – | – | – | – | – | – | – | < 4.00 | 4.24 | 4.20 | 4.40 | 4.24 | 54.3% | < 4.00 | – | –
7 | COc1cc(C(=O)c2cc3c(ccc4ccccc43)[nH]2)ccn1 [ACT-PFK-115, (3H-Benzo[e]indol-2-yl)-(2-methoxy-pyridin-4-yl)-methanone] | – | – | – | – | – | – | – | – | – | 5.34 | 5.66 | 5.09 | 5.22 | 5.97 | – | 6.21 | 0.0% | 99.6%
8 | O=C(c1ccncc1)c1cc2c(cc(F)c3ccccc32)[nH]1 [ACT-PFK-118, (5-Fluoro-3H-benzo[e]indol-2-yl)-pyridin-4-yl-methanone] | 100 µg/mL (≈ 0.344 mM) | 200 µg/mL (≈ 0.689 mM) | 1000 µg/mL (≈ 3.44 mM) | 600 µg/mL (≈ 2.07 mM) | 2200 µg/mL (≈ 7.58 mM) | 300 µg/mL (≈ 1.03 mM) | 1600 µg/mL (≈ 5.51 mM) | 1300 µg/mL (≈ 4.48 mM) | – | 6.62 | 6.38 | 5.77 | 6.41 | 7.02 | 0% | 6.17 | 0.0% | 22.2%
9 | COc1cc(C(=O)c2cc3c(cc(F)c4ccccc43)[nH]2)ccc1O [ACT-PFK-119, (5-Fluoro-3H-benzo[e]indol-2-yl)-(4-hydroxy-3-methoxy-phenyl)-methanone] | 300 µg/mL (≈ 0.895 mM) | 1000 µg/mL (≈ 2.98 mM) | 6100 µg/mL (≈ 18.2 mM) | 5500 µg/mL (≈ 16.4 mM) | 14400 µg/mL (≈ 42.9 mM) | 700 µg/mL (≈ 2.09 mM) | 11400 µg/mL (≈ 34 mM) | 8600 µg/mL (≈ 25.6 mM) | – | 6.96 | 7.15 | 6.44 | 6.50 | 7.15 | 3.7% | 6.21 | 0.0% | 79.2%
10 | Cc1ccc(C(=O)c2cc3c(ccc4ccccc43)[nH]2)cc1 [ACT-PFK-123, (3H-Benzo[e]indol-2-yl)-p-tolyl-methanone] | – | – | – | – | – | – | – | – | – | 7.00 | 7.10 | – | 6.50 | – | 19.4% | – | – | –
